{
  "source": "patent US20240327393A1",
  "about": "(SIRONAX LTD., priority 2021, published 2024)",
  "data": [
    {"tested_on": "HT-1080 (ATCC, CCL-121) cells", "experiment": "HT-1080 cell viability assay with ferroptosis inducer RSL3 (Cell Titer-Glo)", "assay_type": "cell-based", "settings": "HT-1080 cells treated with RSL3; 3-fold, 10-point dilution, 1.1 μM highest concentration; Table 3; read-out: EC50 (nM), ferroptosis inhibitory activity", "outline": "(§1)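 HT-1080 cells (6000 per well) were cultured overnight at 37 °C, then co-treated with RSL3 and compound in a 3-fold, 10-point series topping at 1.1 μM. Viability was read by CellTiter-Glo luminescence and normalized to untreated controls. EC50 came from a sigmoidal non-linear regression fit.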", "units": {"EC50": "nM"}, "values": [
      {"compound": "Cc1cc(Nc2ccc3c(c2)OCC(=O)N3CCO)ccc1N1CC(C)OC(C)C1", "note": "(stereo not shown) [Compound 461, 7-((4-(2,6-dimethylmorpholino)-3-methylphenyl)amino)-4-(2-hydroxyethyl)-2H-benzo[b][1,4]oxazin-3(4H)-one]", "EC50": "0.1 to 100"}
    ]},
    {"tested_on": "HT-1080 (ATCC, CCL-121) cells", "experiment": "HT-1080 cell viability assay with ferroptosis inducer RSL3 (Cell Titer-Glo)", "assay_type": "cell-based", "settings": "Homo sapiens; HT-1080 cells treated with RSL3; 3-fold, 10-point dilution, 1.1 μM highest concentration; Table 2; read-out: EC50 (nM), ferroptosis inhibitory activity", "outline": "as §1", "units": {"EC50": "nM"}, "values": [
      {"compound": "CN1Cc2cc(Nc3ccc(N(C)C)cc3)ccc2C1=O", "note": "[Compound 227, 5-((4-(dimethylamino)phenyl)amino)-2-methylisoindolin-1-one]", "EC50": "0.1 to 100"},
      {"compound": "CC1CCN(c2ccc(Nc3ccc4c(c3)ncc(=O)n4C)cc2)CC1", "note": "[Compound 115, 1-methyl-6-((4-(4-methylpiperidin-1-yl)phenyl)amino)quinoxalin-2(1H)-one]", "EC50": "0.1 to 100"},
      {"compound": "Cc1cc(C)c(Nc2ccc3c(c2)CN(C)C3=O)cn1", "note": "[Compound 236, 5-((4,6-dimethylpyridin-3-yl)amino)-2-methylisoindolin-1-one]", "EC50": "0.1 to 100"},
      {"compound": "Cn1c(=O)n(C)c2cc(Nc3ccc(C(=O)N4CCCC4)cc3)ccc21", "note": "[Compound 292, 1,3-dimethyl-5-((4-(pyrrolidine-1-carbonyl)phenyl)amino)-1,3-dihydro-2H-benzo[d]imidazol-2-one]", "EC50": "1000 to 10000"},
      {"compound": "Cc1cc(Nc2ccc(N3CCC(C(F)(F)F)CC3)cc2)cc2c1C(=O)N(C)C2", "note": "[Compound 326, 2,7-dimethyl-5-((4-(4-(trifluoromethyl)piperidin-1-yl)phenyl)amino) isoindolin-1-one]", "EC50": "0.1 to 100"},
      {"compound": "COC1(C(F)(F)F)CCN(c2ccc(Nc3ccc4c(c3)OCC(=O)N4C)cc2)CC1", "note": "[Compound 9, 7-((4-(4-methoxy-4-(trifluoromethyl)piperidin-1-yl)phenyl)amino)-4-methyl-2H-benzo[b][1,4]oxazin-3(4H)-one]", "EC50": "0.1 to 100"},
      {"compound": "Cc1cc(N2CC(C)OC(C)C2)ccc1Nc1ccc2c(c1)OCC(=O)N2C", "note": "(stereo not shown) [Compound 51, 7-((4-(2,6-dimethylmorpholino)-2-methylphenyl)amino)-4-methyl-2H-benzo[b][1,4]oxazin-3(4H)-one]", "EC50": "0.1 to 100"},
      {"compound": "CN1CCN(CC(=O)N2CCc3cc(Nc4ccc(N5CCCCC5)cc4)ccc3C2)CC1", "note": "[Compound 103, 2-(4-methylpiperazin-1-yl)-1-(6-((4-(piperidin-1-yl)phenyl)amino)-3,4-dihydroisoquinolin-2(1H)-yl)ethan-1-one]", "EC50": "100 to 1000"},
      {"compound": "CC1CCN(c2ccc(Nc3ccc4c(c3)CN(C)C4=N)cc2)CC1", "note": "[Compound 294, 1-imino-2-methyl-N-(4-(4-methylpiperidin-1-yl)phenyl)isoindolin-5-amine]", "EC50": "0.1 to 100"},
      {"compound": "CCN(CC)c1nc2ccc(Nc3ccc(N4CCC(C(F)(F)F)CC4)cc3)cc2n1C", "note": "[Compound 402, N2,N2-diethyl-1-methyl-N6-(4-(4-(trifluoromethyl)piperidin-1-yl)phenyl)-1H-benzo[d]imidazole-2,6-diamine]", "EC50": "0.1 to 100"},
      {"compound": "CC1CCN(c2ccc(Nc3ccc4c(c3)CN(C)C4=O)cc2)CC1", "note": "[Compound 174, 2-methyl-5-((4-(4-methylpiperidin-1-yl)phenyl)amino)isoindolin-1-one]", "EC50": "0.1 to 100"},
      {"compound": "Cc1c(Nc2ccc3c(c2)n(C)c(=O)n3C)ccc(N2CCC(C)CC2)c1C", "note": "[Compound 281, 5-((2,3-dimethyl-4-(4-methylpiperidin-1-yl)phenyl)amino)-1,3-dimethyl-1,3-dihydro-2H-benzo[d]imidazol-2-one]", "EC50": "0.1 to 100"},
      {"compound": "CC1CN(c2ccc(Nc3ccc4c(=O)n(C)[nH]c4c3)cc2)CC(C)O1", "note": "(stereo not shown) [Compound 432, 6-((4-(2,6-dimethylmorpholino)phenyl)amino)-2-methyl-1H-indazol-3(2H)-one]", "EC50": "0.1 to 100"},
      {"compound": "CN1C(=O)COc2cc(Nc3ccc4c(c3)CCCC4(C)C)ccc21", "note": "[Compound 37, 7-((5,5-dimethyl-5,6,7,8-tetrahydronaphthalen-2-yl)amino)-4-methyl-2H-benzo[b][1,4]oxazin-3(4H)-one]", "EC50": "0.1 to 100"},
      {"compound": "CN1C(=O)COc2cc(Nc3ccc4c(c3)CC(C)(C)C4)ccc21", "note": "[Compound 49, 7-((2,2-dimethyl-2,3-dihydro-1H-inden-5-yl)amino)-4-methyl-2H-benzo[b][1,4] oxazin-3(4H)-one]", "EC50": "0.1 to 100"},
      {"compound": "CC(=O)Nc1nn(C)c2ccc(Nc3ccc(N4CCC(C)CC4)cc3)cc12", "note": "[Compound 356, N-(1-methyl-5-((4-(4-methylpiperidin-1-yl)phenyl)amino)-1H-indazol-3-yl) acetamide]", "EC50": "0.1 to 100"},
      {"compound": "COc1cc(N2CCC(C)CC2)cc(F)c1Nc1ccc2c(c1)n(C)c(=O)n2C", "note": "[Compound 272, 5-((2-fluoro-6-methoxy-4-(4-methylpiperidin-1-yl)phenyl)amino)-1,3-dimethyl-1,3-dihydro-2H-benzo[d]imidazol-2-one]", "EC50": "0.1 to 100"},
      {"compound": "COC1(C(F)(F)F)CCN(c2ccc(Nc3ccc4c(c3)oc(=O)n4C)cc2)CC1", "note": "[Compound 386, 6-((4-(4-methoxy-4-(trifluoromethyl)piperidin-1-yl)phenyl)amino)-3-methylbenzo[d]oxazol-2(3H)-one]", "EC50": "0.1 to 100"},
      {"compound": "CCCCCOc1ccc(Nc2ccc3c(c2)n(C)c(=O)n3C)cc1OC", "note": "[Compound 296, 5-((3-methoxy-4-(pentyloxy)phenyl)amino)-1,3-dimethyl-1,3-dihydro-2H-benzo[d]imidazol-2-one]", "EC50": "0.1 to 100"},
      {"compound": "CC1CN(c2ccc(Nc3ccc4c(c3)OCC(=O)N4C)cc2F)CC(C)O1", "note": "(stereo not shown) [Compound 73, 7-((4-(2,6-dimethylmorpholino)-3-fluorophenyl)amino)-4-methyl-2H-benzo[b][1,4]oxazin-3(4H)-one]", "EC50": "0.1 to 100"},
      {"compound": "Cn1c(=O)n(C)c2cc(Nc3ccc4c(c3)OCCO4)ccc21", "note": "[Compound 307, 5-((2,3-dihydrobenzo[b][1,4]dioxin-6-yl)amino)-1,3-dimethyl-1,3-dihydro-2H-benzo[d]imidazol-2-one]", "EC50": "100 to 1000"},
      {"compound": "CCn1c(=O)oc2ccc(Nc3ccc(N4CCC(C(F)(F)F)CC4)cc3)cc21", "note": "[Compound 392, 3-ethyl-5-((4-(4-(trifluoromethyl)piperidin-1-yl)phenyl)amino) benzo[d]oxazol-2(3H)-one]", "EC50": "0.1 to 100"},
      {"compound": "Cn1c(=O)n(C)c2cc(Nc3ccc(N4CCC(O)(C(F)(F)F)CC4)cc3)ccc21", "note": "[Compound 332, 5-((4-(4-hydroxy-4-(trifluoromethyl)piperidin-1-yl)phenyl)amino)-1,3-dimethyl-1,3-dihydro-2H-benzo[d]imidazol-2-one]", "EC50": "0.1 to 100"}
    ]},
    {"tested_on": "HT-1080 (ATCC, CCL-121) cells", "experiment": "HT-1080 cell viability assay with ferroptosis inducer RSL3 (Cell Titer-Glo)", "assay_type": "cell-based", "settings": "Homo sapiens; HT-1080 cells treated with RSL3; 3-fold, 10-point dilution, 1.1 μM highest concentration; Table 3; read-out: EC50 (nM), ferroptosis inhibitory activity", "outline": "as §1", "units": {"EC50": "nM"}, "values": [
      {"compound": "O=C1COc2cc(Nc3ccc(N4CCC(F)(F)CC4)cc3)ccc2N1", "note": "[Compound 524, 7-((4-(4,4-difluoropiperidin-1-yl)phenyl)amino)-2H-benzo[b][1,4]oxazin-3(4H)-one]", "EC50": "0.1 to 100"},
      {"compound": "Cc1cc(N2CCC(C)C2)ccc1Nc1ccc2c(c1)OCC(=O)N2", "note": "(stereo not shown) [Compound 604, 7-((2-methyl-4-(3-methylpyrrolidin-1-yl)phenyl)amino)-2H-benzo[b][1,4]oxazin-3(4H)-one]", "EC50": "0.1 to 100"},
      {"compound": "Cc1cc(N2CCOC(C)C2)ccc1Nc1ccc2c(c1)CCNC2", "note": "(stereo not shown) [Compound 529, N-(2-methyl-4-(2-methylmorpholino)phenyl)-1,2,3,4-tetrahydroisoquinolin-6-amine]", "EC50": "0.1 to 100"},
      {"compound": "Cc1cc(N2CC(F)(F)C2)ccc1Nc1ccc2c(c1)OCCC(=O)N2", "note": "[Compound 626, 8-((4-(3,3-difluoroazetidin-1-yl)-2-methylphenyl)amino)-2,3-dihydrobenzo[b][1,4]oxazepin-4(5H)-one]", "EC50": "0.1 to 100"},
      {"compound": "O=C1CCOc2cc(Nc3ccc(N4CCC(O)(C(F)(F)F)CC4)cc3)ccc2N1", "note": "[Compound 556, 8-((4-(4-hydroxy-4-(trifluoromethyl)piperidin-1-yl)phenyl)amino)-2,3-dihydrobenzo[b][1,4]oxazepin-4(5H)-one]", "EC50": "0.1 to 100"},
      {"compound": "CCC1CN(c2ccc(Nc3ccc4c(c3)CNC(=O)N4)c(C)n2)CCO1", "note": "(stereo not shown) [Compound 573, 6-{[6-(2-ethylmorpholin-4-yl)-2-methylpyridin-3-yl]amino}-3,4-dihydro-1H-quinazolin-2-one]", "EC50": "0.1 to 100"},
      {"compound": "O=C1COc2cc(Nc3ccc(N4CCC(C(F)(F)F)CC4)cc3)cc(F)c2N1", "note": "[Compound 619, 5-fluoro-7-({4-[4-(trifluoromethyl)piperidin-1-yl]phenyl}amino)-2,4-dihydro-1,4-benzoxazin-3-one]", "EC50": "0.1 to 100"},
      {"compound": "Cc1cc(N2CCC(C)(O)CC2)ccc1Nc1ccc2c(c1)OCC(=O)N2", "note": "[Compound 541, 7-((4-(4-hydroxy-4-methylpiperidin-1-yl)-2-methylphenyl)amino)-2H-benzo[b][1,4]oxazin-3(4H)-on]", "EC50": "100 to 1000"},
      {"compound": "Cc1cc(N2CCC(O)(C(F)(F)F)CC2)ccc1Nc1ccc2c(c1)OCCC(=O)N2", "note": "[Compound 555, 8-((4-(4-hydroxy-4-(trifluoromethyl)piperidin-1-yl)-2-methylphenyl)amino)-2,3-dihydrobenzo[b][1,4]oxazepin-4(5H)-one]", "EC50": "0.1 to 100"},
      {"compound": "Cc1cc(N2CCC(C(F)(F)F)CC2)ncc1Nc1ccc2c(c1)OCC(=O)N2C", "note": "[Compound 452, 4-methyl-7-((4-methyl-6-(4-(trifluoromethyl)piperidin-1-yl)pyridin-3-yl)amino)-2H-benzo[b][1,4]oxazin-3(4H)-one]", "EC50": "0.1 to 100"},
      {"compound": "Cc1cc(N2CC(C(F)(F)F)C2)ccc1Nc1ccc2c(c1)OCC(=O)N2", "note": "[Compound 583, 7-((2-methyl-4-(3-(trifluoromethyl)azetidin-1-yl)phenyl)amino)-2H-benzo[b][1,4]oxazin-3(4H)-one]", "EC50": "0.1 to 100"},
      {"compound": "Cc1cc(N2CCC(C(F)(F)F)CC2)cc2c1[nH]c1cc3cnn(C(N)=O)c3cc12", "note": "[Compound 615, 6-methyl-8-(4-(trifluoromethyl)piperidin-1-yl)pyrazolo[4,3-b]carbazole-1(5H)-carboxamide]", "EC50": "1000 to 10000"},
      {"compound": "Cc1cc(N2CC(O)(C(F)(F)F)C2)ccc1Nc1ccc2c(c1)ncn2C", "note": "[Compound 651, 1-[3-methyl-4-[(1-methylbenzimidazol-5-yl)amino]phenyl]-3-(trifluoromethyl)azetidin-3-ol]", "EC50": "0.1 to 100"}
    ]}
  ]
}
